Experimental data as given in patent publication US12011444B2, “N-substituted indole derivatives as PGE2 receptor modulators” (Idorsia Pharmaceuticals Ltd, priority 2015, dated 2024).

Columns and labels:
PTRGER4 (EP4) = PTRGER4 (EP4) (Homo sapiens (Human), UniProt P35408); test: hEP4 b-arrestin assay (PathHunter HEK 293 PTGER4 b-arrestin cells); format: cell-based; settings: hEP4 b-arrestin assay (values without asterisk)
How it was run: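 Antagonist mode: compound is given 15 min at 37 °C, then 20 nM (final) PGE2 for 120 min, in HEK293 cells stably expressing EP4 fused to ProLink and β-arrestin 2 fused to EA. Recruitment read as β-gal luminescence after 1 h reagent at room temperature, as percent of DMSO control.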

PTGER2 (EP2) = PTGER2 (EP2) (Homo sapiens (Human), UniProt P43116); test: hEP2 b-arrestin assay (PathHunter HEK 293 PTGER2 b-arrestin cells); format: cell-based; settings: hEP2 b-arrestin assay (values without asterisk)
How it was run: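 Readout is β-galactosidase complementation luminescence, expressed as percent of DMSO control (duplicates). PathHunter HEK293 EP2/β-arrestin 2 cells, grown 24 h, received compound for 15 min at 37 °C before a 120 min challenge with PGE2 at 5 μM final, followed by 1 h detection at room temperature.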

Chain of PTRGER4 (EP4) (P35408 whole entry, looked up, the tested form may be a part): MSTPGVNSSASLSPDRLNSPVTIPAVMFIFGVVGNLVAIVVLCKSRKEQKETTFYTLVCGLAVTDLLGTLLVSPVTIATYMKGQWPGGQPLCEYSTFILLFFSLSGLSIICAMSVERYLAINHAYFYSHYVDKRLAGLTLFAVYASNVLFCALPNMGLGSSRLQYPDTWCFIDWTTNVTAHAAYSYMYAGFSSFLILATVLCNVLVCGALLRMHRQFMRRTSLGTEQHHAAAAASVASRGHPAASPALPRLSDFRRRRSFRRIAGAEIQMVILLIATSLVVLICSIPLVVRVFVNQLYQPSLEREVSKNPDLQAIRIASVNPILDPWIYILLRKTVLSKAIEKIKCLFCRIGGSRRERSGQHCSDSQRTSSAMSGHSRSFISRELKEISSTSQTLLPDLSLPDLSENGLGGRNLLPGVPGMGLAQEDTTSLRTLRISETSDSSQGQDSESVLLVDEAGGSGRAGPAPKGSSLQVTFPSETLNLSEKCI
Chain of PTGER2 (EP2) (P43116 whole entry): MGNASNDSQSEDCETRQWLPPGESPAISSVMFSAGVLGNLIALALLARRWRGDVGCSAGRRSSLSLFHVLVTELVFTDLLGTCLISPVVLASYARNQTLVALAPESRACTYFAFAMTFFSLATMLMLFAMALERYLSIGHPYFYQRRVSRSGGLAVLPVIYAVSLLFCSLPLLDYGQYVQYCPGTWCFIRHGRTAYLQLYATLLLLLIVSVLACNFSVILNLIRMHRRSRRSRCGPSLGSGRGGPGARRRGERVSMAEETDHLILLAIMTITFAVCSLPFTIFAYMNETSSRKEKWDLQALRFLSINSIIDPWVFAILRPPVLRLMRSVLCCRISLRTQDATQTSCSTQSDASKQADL

| Compound | IC50 (PTRGER4 (EP4)) [nM] | IC50 (PTGER2 (EP2)) [nM] |
| --- | --- | --- |
| CCOc1cc(-c2cc(NCCn3c(C)cc4c(C)ccc(F)c43)ncn2)ccc1NCC(=O)O [Example 877, (2-Ethoxy-4-{6-[2-(7-fluoro-2,4-dimethyl-indol-1-yl)-ethylamino]-pyrimidin-4-yl}-phenylamino)-acetic acid] | 34 | 5 |
| CCCCOc1cc(-c2cc(NCCn3c(C)cc4c(OC)cc(F)c(F)c43)ncn2)ccc1C(=O)O [Example 878, 2-Butoxy-4-{6-[2-(6,7-difluoro-4-methoxy-2-methyl-indol-1-yl)-ethylamino]-pyrimidin-4-yl}-benzoic acid] | 22 | 1 |
| Cc1cccc2c1cc(C)n2CCNc1cc(-c2cc(OC(C)C)c(C(=O)O)s2)ncn1 [Example 879, 5-{6-[2-(2,4-Dimethyl-indol-1-yl)-ethylamino]-pyrimidin-4-yl}-3-isopropoxy-thiophene-2-carboxylic acid] | 36 | 4 |
| CCOc1cc(-c2cc(NCCn3c(C)cc4c(OC)cccc43)ncn2)ccc1-c1noc(=O)[nH]1 [Example 881, 3-(2-Ethoxy-4-{6-[2-(4-methoxy-2-methyl-indol-1-yl)-ethylamino]-pyrimidin-4-yl}-phenyl)-[1,2,4]oxadiazol-5(4H)-one] | 41 | 5 |
| CCOc1cc(-c2cc(NCCn3c(C)cc4c(OC)cc(F)cc43)ncn2)ccc1NCC(=O)O [Example 882, (2-Ethoxy-4-{6-[2-(6-fluoro-4-methoxy-2-methyl-indol-1-yl)-ethylamino]-pyrimidin-4-yl}-phenylamino)-acetic acid] | 55 | 11 |
| CCOc1cc(-c2cc(NCCn3c(C)cc4c(Cl)c(F)cc(Cl)c43)ncn2)sc1C(=O)O [Example 883, 5-{6-[2-(4,7-Dichloro-5-fluoro-2-methyl-indol-1-yl)-ethylamino]-pyrimidin-4-yl}-3-ethoxy-thiophene-2-carboxylic acid] | 63 | 7 |
| CCCCOc1cc(-c2cc(NCCn3c(C)cc4c(OC)cc(Cl)c(F)c43)ncn2)ccc1C(=O)O [Example 884, 2-Butoxy-4-{6-[2-(6-chloro-7-fluoro-4-methoxy-2-methyl-indol-1-yl)-ethylamino]-pyrimidin-4-yl}benzoic acid] | 84 | 10 |
| CCOc1cc(-c2cc(NCCn3c(C)cc4c(OC)c(F)cc(Cl)c43)ncn2)sc1C(=O)O [Example 885, 5-{6-[2-(7-Chloro-5-fluoro-4-methoxy-2-methyl-indol-1-yl)-ethylamino]-pyrimidin-4-yl}-3-ethoxy-thiophene-2-carboxylic acid] | 89 | 40 |
| COc1cc(-c2cc(NCCn3c(C)cc4c(OC)ccc(F)c43)ncn2)ccc1CC(=O)O [Example 886, (4-{6-[2-(7-Fluoro-4-methoxy-2-methyl-indol-1-yl)-ethylamino]-pyrimidin-4-yl}-2-methoxy-phenyl)-acetic acid] | 125 | 42 |
| COc1ccc(F)c2c1cc(C#N)n2CCNc1cc(-c2ccc(C(F)(F)C(=O)O)cc2)ncn1 [Example 887, (4-{6-[2-(2-Cyano-7-fluoro-4-methoxy-indol-1-yl)-ethylamino]-pyrimidin-4-yl}-phenyl)-difluoro-acetic acid] | 177 | 89 |
| COc1ccc(F)c2c1cc(C)n2CCNc1cc(-c2ccc(C(=O)O)c(C#N)c2)ncn1 [Example 888, 2-Cyano-4-{6-[2-(7-fluoro-4-methoxy-2-methyl-indol-1-yl)-ethylamino]-pyrimidin-4-yl}-benzoic acid] | 472 | 41 |
| CCOc1cc(-c2cc(NCCn3c(C#N)cc4c(Cl)cc(Cl)cc43)ncn2)sc1C(=O)O [Example 889, 5-{6-[2-(4,6-Dichloro-2-cyano-indol-1-yl)-ethylamino]-pyrimidin-4-yl}-3-ethoxy-thiophene-2-carboxylic acid] | 35 | 1 |
| CCOc1cc(-c2cc(NCCn3c(C#N)cc4c(C)c(F)c(F)cc43)ncn2)sc1C(=O)O [Example 890, 5-{6-[2-(2-Cyano-5,6-difluoro-4-methyl-indol-1-yl)-ethylamino]-pyrimidin-4-yl}-3-ethoxy-thiophene-2-carboxylic acid] | 23 | 2 |
| CCOc1cc(-c2cc(NCCn3c(C#N)cc4c(C)ccc(F)c43)ncn2)sc1C(=O)O [Example 891, 5-{6-[2-(2-Cyano-7-fluoro-4-methyl-indol-1-yl)-ethylamino]-pyrimidin-4-yl}-3-ethoxy-thiophene-2-carboxylic acid] | 3 | 6 |
| CCOc1cc(-c2cc(NCCn3c(C#N)cc4cccc(F)c43)ncn2)sc1C(=O)O [Example 892, 5-{6-[2-(2-Cyano-7-fluoro-indol-1-yl)-ethylamino]-pyrimidin-4-yl}-3-ethoxy-thiophene-2-carboxylic acid] | 24 | 1 |
| CCOc1cc(-c2cc(NCCn3c(C#N)cc4c(C)c(F)c(F)cc43)ncn2)ccc1OCC(=O)O [Example 893, (4-{6-[2-(2-Cyano-5,6-difluoro-4-methyl-indol-1-yl)-ethylamino]-pyrimidin-4-yl}-2-ethoxy-phenoxy)-acetic acid] | 118 | 42 |
| CCOc1cc(-c2cc(NCCn3c(C#N)cc4c(C)c(F)c(F)cc43)ncn2)ccc1NCC(=O)O [Example 895, (4-{6-[2-(2-Cyano-5,6-difluoro-4-methyl-indol-1-yl)-ethylamino]-pyrimidin-4-yl}-2-ethoxy-phenylamino)-acetic acid] | 66 | 20 |
| CCOc1cc(-c2cc(NCCn3c(C#N)cc4cccc(F)c43)ncn2)ccc1NCC(=O)O [Example 896, (4-{6-[2-(2-Cyano-7-fluoro-indol-1-yl)-ethylamino]-pyrimidin-4-yl}-2-ethoxy-phenylamino)-acetic acid] | 34 | 2 |
| CCOC(=O)Cc1ccc(-c2cc(NCCn3c(C)cc4c(OC)ccc(F)c43)ncn2)cc1 [Example 897, (4-{6-[2-(7-Fluoro-4-methoxy-2-methyl-indol-1-yl)-ethylamino]-pyrimidin-4-yl}-phenyl)-acetic acid ethyl ester] | 453 | 380 |
| COc1cc(-c2cc(NCCn3c(C#N)cc4c(OC)ccc(F)c43)ncn2)ccn1 [Example 898, 7-Fluoro-4-methoxy-1-{2-[6-(2-methoxy-pyridin-4-yl)-pyrimidin-4-ylamino]-ethyl}-1H-indole-2-carbonitrile] | 123 | 41 |
| CCOc1cc(-c2cc(NCCn3c(C#N)cc4c(OC)ccc(F)c43)ncn2)ccc1O [Example 899, 1-{2-[6-(3-Ethoxy-4-hydroxy-phenyl)-pyrimidin-4-ylamino]-ethyl)-7-fluoro-4-methoxy-1H-indole-2-carbonitrile] | 16 | 5 |
| COc1ccc(F)c2c1cc(C#N)n2CCNc1cc(-c2ccc(C(N)=O)s2)ncn1 [Example 900, 5-{6-[2-(2-Cyano-7-fluoro-4-methoxy-indol-1-yl)-ethylamino]-pyrimidin-4-yl)-thiophene-2-carboxylic acid amide] | 22 | 26 |
| N#Cc1cc2cccc(F)c2n1CCNc1cc(-c2cc(F)c(C(=O)O)s2)ncn1 [Example 901, 5-{6-[2-(2-Cyano-7-fluoro-indol-1-yl)-ethylamino]-pyrimidin-4-yl}-3-fluoro-thiophene-2-carboxylic acid] | 76 | 7 |
| COc1cccc2c1cc(C#N)n2CCNc1cc(-c2cc(F)c(C(=O)O)s2)ncn1 [Example 902, 5-{6-[2-(2-Cyano-4-methoxy-indol-1-yl)-ethylamino]-pyrimidin-4-yl}-3-fluoro-thiophene-2-carboxylic acid] | 8 | 3 |
| N#Cc1cc2c(Cl)cccc2n1CCNc1cc(-c2cc(F)c(C(=O)O)s2)ncn1 [Example 903, 5-{6-[2-(4-Chloro-2-cyano-indol-1-yl)-ethylamino]-pyrimidin-4-yl}-3-fluoro-thiophene-2-carboxylic acid] | 69 | 4 |
| N#Cc1cc2c(Cl)cc(F)c(F)c2n1CCNc1cc(-c2cc(F)c(C(=O)O)s2)ncn1 [Example 904, 5-{6-[2-(4-Chloro-2-cyano-6,7-difluoro-indol-1-yl)-ethylamin0]-pyrimidin-4-yl}-3-fluoro-thiophene-2-carboxylic acid] | 49 | 1 |
| CCCCOc1cc(-c2cc(NCCn3c(C#N)cc4c(OC)ccc(F)c43)ncn2)cc(F)c1C(=O)O [Example 905, 2-Butoxy-4-{6-[2-(2-cyano-7-fluoro-4-methoxy-indol-1-yl)-ethylamino]-pyrimidin-4-yl}-6-fluoro-benzoic acid] | 5 | 22 |
| CCCCOc1cc(-c2cc(NCCn3c(C#N)cc4c(OC)ccc(F)c43)ncn2)cc(Cl)c1C(=O)O [Example 906, 2-Butoxy-6-chloro-4-{6-[2-(2-cyano-7-fluoro-4-methoxy-indol-1-yl)-ethylamino]-pyrimidin-4-yl}-benzoic acid] | 3 | 30 |
| CCCOc1cc(-c2cc(NCCn3c(C#N)cc4c(OC)ccc(F)c43)ncn2)cc(Cl)c1C(=O)O [Example 907, 2-Chloro-4-{6-[2-(2-cyano-7-fluoro-4-methoxy-indol-1-yl)-ethylamino]-pyrimidin-4-yl}-6-propoxy-benzoic acid] | 12 | 24 |
| CCCOc1cc(-c2cc(NCCn3c(C#N)cc4c(OC)ccc(F)c43)ncn2)cc(F)c1C(=O)O [Example 908, 4-{6-[2-(2-Cyano-7-fluoro-4-methoxy-indol-1-yl)-ethylamino]-pyrimidin-4-yl}-2-fluoro-6-propoxy-benzoic acid] | 33 | 17 |
